The record followed here is patent US8198273B2, “Compounds and methods for kinase modulation, and indications therefor” (Plexxikon Inc., priority 2009, dated 2012).

In one data set the target is CYP3A4(BQ) (Homo sapiens, UniProt P08684). In words: CYP3A4(BQ) inhibition (fluorescent substrate). The conditions noted are these: read-out: Cyp IC50 3A4(BQ). The data set is classed as in vitro ADME. Put shortly: (§1)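 Inhibition was followed as loss of fluorescent metabolite from a known substrate, with compound in co-factor mix as a 10-point 1:1 serial dilution (100 mM DMSO stock).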
Chain of CYP3A4(BQ) (P08684 whole entry): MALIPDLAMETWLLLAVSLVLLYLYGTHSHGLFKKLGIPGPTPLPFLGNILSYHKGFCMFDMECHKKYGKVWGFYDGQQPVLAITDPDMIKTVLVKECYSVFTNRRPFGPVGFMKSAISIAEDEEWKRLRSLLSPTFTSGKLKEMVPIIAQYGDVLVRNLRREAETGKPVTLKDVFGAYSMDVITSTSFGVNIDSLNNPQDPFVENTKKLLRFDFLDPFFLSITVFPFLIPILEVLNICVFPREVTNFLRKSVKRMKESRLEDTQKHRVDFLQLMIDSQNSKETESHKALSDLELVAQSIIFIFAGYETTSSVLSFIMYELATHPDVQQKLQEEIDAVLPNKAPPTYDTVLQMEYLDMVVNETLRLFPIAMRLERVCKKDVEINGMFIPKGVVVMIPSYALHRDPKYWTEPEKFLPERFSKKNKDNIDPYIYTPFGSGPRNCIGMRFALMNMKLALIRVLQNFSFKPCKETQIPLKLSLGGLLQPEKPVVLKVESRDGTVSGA

For a further data set, the target named is B-Raf (Homo sapiens, UniProt P15056). Briefly: B-Raf biochemical kinase inhibition (AlphaScreen, biotin-MEK1 substrate). Conditions: 100 μM ATP. The method in brief:
(§2)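 IC50 derived from AlphaScreen signal plotted against compound concentration. Final ATP 100 μM; 3 h incubation at room temperature. Eight-point 3-fold dilution series prepared from a 0.1 mM DMSO stock.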
On the technique in general: In Alpha technology, singlet oxygen from a donor bead excites a nearby acceptor bead.

Another data set addresses CYP3A4(BFC) (Homo sapiens, UniProt P08684). In words: CYP3A4(BFC) inhibition (fluorescent substrate). The data set is classed as in vitro ADME. Conditions: read-out: Cyp IC50 3A4(BFC). The method in brief:
as §1

Data set [1] in a line: Relative solubility by turbidity in aqueous buffers of varying pH. Format: physicochemical. Conditions: for turbidity threshold (L, M, H) 7.4: HEPES pH 7.4; for turbidity threshold (L, M, H) 4.5: SIF pH 4.5; for turbidity threshold (L, M, H) 6.8: SIF pH 6.8; for turbidity threshold (L, M, H) 1.4: buffer pH 1.4 (SGF). The method in brief: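 Turbidity endpoint: concentration where optical density at 490, 535 and 650 nm exceeds 0.01, three-wavelength average used. Buffers at pH 1.5, 4.5, 6.8 and 7.4; DMSO serial dilutions of 25 mM stock spiked 1 μL into 99 μL buffer. Low <31.3, moderate 31.3–250, high >250 μM.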

The next data set has as its target c-Raf-1 (Homo sapiens, UniProt P04049). Briefly: c-Raf-1 biochemical kinase inhibition (AlphaScreen, biotin-MEK1 substrate). The conditions noted are these: 100 μM ATP. Put shortly:
as §2

Chain of B-Raf (P15056 whole entry): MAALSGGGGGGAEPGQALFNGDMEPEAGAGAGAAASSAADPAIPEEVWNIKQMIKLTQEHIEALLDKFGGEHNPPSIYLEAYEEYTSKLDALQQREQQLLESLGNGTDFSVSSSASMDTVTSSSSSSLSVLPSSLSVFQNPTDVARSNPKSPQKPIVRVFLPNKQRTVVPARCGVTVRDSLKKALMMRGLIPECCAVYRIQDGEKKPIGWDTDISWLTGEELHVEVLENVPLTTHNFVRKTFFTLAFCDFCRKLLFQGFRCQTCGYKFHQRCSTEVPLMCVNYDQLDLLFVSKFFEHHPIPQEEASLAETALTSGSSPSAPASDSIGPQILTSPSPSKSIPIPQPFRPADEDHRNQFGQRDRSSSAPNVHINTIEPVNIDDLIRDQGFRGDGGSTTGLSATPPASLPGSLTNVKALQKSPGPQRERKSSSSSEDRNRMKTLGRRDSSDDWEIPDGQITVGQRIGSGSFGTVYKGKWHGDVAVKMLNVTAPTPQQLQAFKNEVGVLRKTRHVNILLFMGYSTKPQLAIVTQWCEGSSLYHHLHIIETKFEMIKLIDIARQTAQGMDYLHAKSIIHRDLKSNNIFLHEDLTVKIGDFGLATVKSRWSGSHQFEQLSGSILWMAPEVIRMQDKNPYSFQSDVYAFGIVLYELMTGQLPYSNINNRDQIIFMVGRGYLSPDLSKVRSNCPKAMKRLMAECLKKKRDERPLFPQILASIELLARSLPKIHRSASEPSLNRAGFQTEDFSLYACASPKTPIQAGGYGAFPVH
Chain of CYP3A4(BFC) (P08684 whole entry): as the sequence (P08684 whole entry) above
Chain of c-Raf-1 (P04049 whole entry): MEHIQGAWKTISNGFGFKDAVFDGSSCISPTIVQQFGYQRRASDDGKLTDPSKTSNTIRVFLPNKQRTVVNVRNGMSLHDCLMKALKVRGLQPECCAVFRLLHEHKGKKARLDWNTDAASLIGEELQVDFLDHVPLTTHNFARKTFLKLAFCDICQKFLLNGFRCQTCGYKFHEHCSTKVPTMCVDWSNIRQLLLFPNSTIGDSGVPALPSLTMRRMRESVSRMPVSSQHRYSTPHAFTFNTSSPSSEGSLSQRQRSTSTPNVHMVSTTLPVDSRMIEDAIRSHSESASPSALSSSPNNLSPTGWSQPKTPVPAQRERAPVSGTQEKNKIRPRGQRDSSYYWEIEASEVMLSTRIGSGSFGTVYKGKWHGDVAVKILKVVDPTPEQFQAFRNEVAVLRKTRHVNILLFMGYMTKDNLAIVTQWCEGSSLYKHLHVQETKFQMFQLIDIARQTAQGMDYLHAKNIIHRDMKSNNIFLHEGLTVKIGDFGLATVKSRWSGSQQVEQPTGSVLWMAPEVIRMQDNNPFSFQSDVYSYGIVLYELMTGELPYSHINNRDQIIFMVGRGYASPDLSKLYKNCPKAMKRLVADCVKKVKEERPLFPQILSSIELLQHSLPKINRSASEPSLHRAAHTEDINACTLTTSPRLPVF

`CCCS(=O)(=O)Nc1ccc(F)c(C(=O)c2c[nH]c3ncc(-c4ccc(S(=O)(=O)N5CCOCC5)cc4)cc23)c1F` [P-2166, Propane-1-sulfonic acid (2,4-difluoro-3-{5-[4-(morpholine-4-sulfonyl)-phenyl]-1H-pyrrolo[2,3-b]pyridine-3-carbonyl}-phenyl)-amide]: the IC50 at CYP3A4(BQ) was greater than 10 µM. The compound also showed a half-inhibitory concentration (IC50) on B-Raf of less than 0.01 µM. Also, the IC50 on CYP3A4(BFC) is greater than 10 µM. Also, in data set [1], the “turbidity threshold (L, M, H) 7.4” value is recorded as “L (low solubility if the threshold concentration is <31.3 04)”; the “turbidity threshold (L, M, H) 4.5” value is reported as “L (low solubility if the threshold concentration is <31.3 04)”; the “turbidity threshold (L, M, H) 6.8” value was “L (low solubility if the threshold concentration is <31.3 04)”; the “turbidity threshold (L, M, H) 1.4” value was “L (low solubility if the threshold concentration is <31.3 04)”. The half-inhibitory concentration (IC50) against c-Raf-1 was less than 0.01 µM.
Consider `CCCS(=O)(=O)Nc1ccc(F)c(C(=O)c2c[nH]c3ncc(-c4cn[nH]c4)cc23)c1F` [P-2174, Propane-1-sulfonic acid {2,4-difluoro-3-[5-(1H-pyrazol-4-yl)-1H-pyrrolo[2,3-b]pyridine-3-carbonyl]-phenyl}-amide], for which the IC50 at CYP3A4(BQ) is less than 5 µM. The same compound came in with an IC50 on B-Raf of less than 0.01 µM. Moreover, the IC50 on CYP3A4(BFC) was greater than 10 µM. Also, in data set [1], the “turbidity threshold (L, M, H) 7.4” value is on record as “L (low solubility if the threshold concentration is <31.3 04)”; the “turbidity threshold (L, M, H) 4.5” value is “L (low solubility if the threshold concentration is <31.3 04)”; the “turbidity threshold (L, M, H) 6.8” value is “L (low solubility if the threshold concentration is <31.3 04)”; the “turbidity threshold (L, M, H) 1.4” value is “L (low solubility if the threshold concentration is <31.3 04)”. In addition, on c-Raf-1, the half-maximal inhibitory concentration (IC50) is less than 0.01 µM.
`CCCS(=O)(=O)Nc1ccc(F)c(C(=O)c2c[nH]c3ncc(-c4ccc(S(=O)(=O)N(C)C)cc4)cc23)c1F` [P-2185, 4-{3-[2,6-Difluoro-3-(propane-1-sulfonylamino)-benzoyl]-1H-pyrrolo[2,3-b]pyridin-5-yl}-N,N-dimethyl-benzenesulfonamide]: at CYP3A4(BQ), the IC50 was greater than 10 µM. Moreover, the IC50 on B-Raf was less than 0.01 µM. Also, the IC50 on CYP3A4(BFC) was greater than 10 µM. In data set [1], the “turbidity threshold (L, M, H) 7.4” value is listed as “L (low solubility if the threshold concentration is <31.3 04)”; the “turbidity threshold (L, M, H) 4.5” value was “L (low solubility if the threshold concentration is <31.3 04)”; the “turbidity threshold (L, M, H) 6.8” value is “L (low solubility if the threshold concentration is <31.3 04)”; the “turbidity threshold (L, M, H) 1.4” value was “L (low solubility if the threshold concentration is <31.3 04)”. Also, the IC50 at c-Raf-1 is less than 0.01 µM.
With `CCCS(=O)(=O)Nc1ccc(F)c(C(=O)c2c[nH]c3ncc(-c4cnc(SC)nc4)cc23)c1F` [P-2189, Propane-1-sulfonic acid {2,4-difluoro-3-[5-(2-methylsulfanyl-pyrimidin-5-yl)-1H-pyrrolo[2,3-b]pyridine-3-carbonyl]-phenyl}-amide], the IC50 at CYP3A4(BQ) was less than 5 µM. Besides, the IC50 at B-Raf was less than 0.01 µM. On CYP3A4(BFC), the IC50 is greater than 10 µM. Also, in data set [1], the “turbidity threshold (L, M, H) 7.4” value is listed as “L (low solubility if the threshold concentration is <31.3 04)”; the “turbidity threshold (L, M, H) 4.5” value is recorded as “L (low solubility if the threshold concentration is <31.3 04)”; the “turbidity threshold (L, M, H) 6.8” value is “L (low solubility if the threshold concentration is <31.3 04)”; the “turbidity threshold (L, M, H) 1.4” value is reported as “L (low solubility if the threshold concentration is <31.3 04)”. Also, at c-Raf-1, the IC50 is less than 0.01 µM.
Consider `CCCS(=O)(=O)Nc1ccc(F)c(C(=O)c2c[nH]c3ncc(-c4ccc(NC(C)=O)nc4)cc23)c1F` [P-2193, N-(5-{3-[2,6-Difluoro-3-(propane-1-sulfonylamino)-benzoyl]-1H-pyrrolo[2,3-b]pyridin-5-yl}-pyridin-2-yl)-acetamide], for which the half-inhibitory concentration (IC50) at CYP3A4(BQ) was greater than 10 µM. On B-Raf, this compound yielded an IC50 of less than 0.01 µM. In addition, the IC50 at CYP3A4(BFC) was in the range of 5 to 10 µM. Also, in data set [1], the “turbidity threshold (L, M, H) 7.4” value is listed as “L (low solubility if the threshold concentration is <31.3 04)”; the “turbidity threshold (L, M, H) 4.5” value was “L (low solubility if the threshold concentration is <31.3 04)”; the “turbidity threshold (L, M, H) 6.8” value is “L (low solubility if the threshold concentration is <31.3 04)”; the “turbidity threshold (L, M, H) 1.4” value is given as “M (moderate solubility if the threshold concentration is 31.3 μM to 250 μM)”. The IC50 at c-Raf-1 is less than 0.01 µM.
Turning to `CCCS(=O)(=O)Nc1ccc(F)c(C(=O)c2c[nH]c3ncc(-c4ccc(S(N)(=O)=O)cc4)cc23)c1F` [P-2194, 4-{3-[2,6-Difluoro-3-(propane-1-sulfonylamino)-benzoyl]-1H-pyrrolo[2,3-b]pyridin-5-yl}-benzenesulfonamide], the IC50 on CYP3A4(BQ) was greater than 10 µM. The 50% inhibitory concentration (IC50) against B-Raf is less than 0.01 µM. Further, the IC50 on CYP3A4(BFC) is greater than 10 µM. Further, in data set [1], the “turbidity threshold (L, M, H) 7.4” value is “L (low solubility if the threshold concentration is <31.3 04)”; the “turbidity threshold (L, M, H) 4.5” value is recorded as “L (low solubility if the threshold concentration is <31.3 04)”; the “turbidity threshold (L, M, H) 6.8” value was “L (low solubility if the threshold concentration is <31.3 04)”; the “turbidity threshold (L, M, H) 1.4” value is reported as “L (low solubility if the threshold concentration is <31.3 04)”. This compound also gave an IC50 at c-Raf-1 of less than 0.01 µM.
Turning to `CCCS(=O)(=O)Nc1ccc(F)c(C(=O)c2c[nH]c3ncc(-c4ccc(C)nc4)cc23)c1F` [P-2213, Propane-1-sulfonic acid {2,4-difluoro-3-[5-(6-methyl-pyridin-3-yl)-1H-pyrrolo[2,3-b]pyridine-3-carbonyl]-phenyl}-amide], on CYP3A4(BQ), the IC50 is greater than 10 µM. In addition, at B-Raf, the IC50 is less than 0.01 µM. Besides, the IC50 at CYP3A4(BFC) is greater than 10 µM. In addition, in data set [1], the “turbidity threshold (L, M, H) 7.4” value is reported as “L (low solubility if the threshold concentration is <31.3 04)”; the “turbidity threshold (L, M, H) 4.5” value is recorded as “M (moderate solubility if the threshold concentration is 31.3 μM to 250 μM)”; the “turbidity threshold (L, M, H) 6.8” value was “L (low solubility if the threshold concentration is <31.3 04)”; the “turbidity threshold (L, M, H) 1.4” value is recorded as “H (high solubility if the threshold concentration is >250 μM)”. The compound also came in with an IC50 against c-Raf-1 of less than 0.01 µM.
Turning to `CCCS(=O)(=O)Nc1ccc(F)c(C(=O)c2c[nH]c3ncc(-c4ccc(C#CCN(CC)CC)nc4)cc23)c1F` [P-2222, Propane-1-sulfonic acid (3-{5-[6-(3-diethylamino-prop-1-ynyl)-pyridin-3-yl]-1H-pyrrolo[2,3-b]pyridine-3-carbonyl}-2,4-difluoro-phenyl)-amide], the IC50 at CYP3A4(BQ) is 5 to 10 µM; against B-Raf, less than 0.01 µM; on CYP3A4(BFC) it was greater than 10 µM; against c-Raf-1, less than 0.01 µM. The “turbidity threshold (L, M, H) 7.4” value in data set [1] is “L (low solubility if the threshold concentration is <31.3 04)”. Besides, the “turbidity threshold (L, M, H) 4.5” value in data set [1] is “L (low solubility if the threshold concentration is <31.3 04)”. Further, the “turbidity threshold (L, M, H) 6.8” value in data set [1] is on record as “L (low solubility if the threshold concentration is <31.3 04)”. Besides, in data set [1], the “turbidity threshold (L, M, H) 1.4” value is given as “L (low solubility if the threshold concentration is <31.3 04)”.

For orientation: IC50 means the concentration needed to halve the response being measured.
